Earlier results as cited in US8778301B2, “Gamma-hydroxybutyrate compositions containing carbohydrate, lipid or amino acid carriers” (Orphan Medical, Inc., priority 2000, dated 2014).
Counter-ions that a name gives are not always drawn.

Tests used:
[1] = not given; remark: listed apart in the source
[2] = not given; remark: listed apart in the source
[3] = heroin and methadone withdrawal
[4] = patients
[5] = patients; remark: listed apart in the source
[6] = intravenous administration, patients
[7] = in vivo
[8] = healthy volunteers, 12.5, 25 and 50 mg/kg

SMILES	duration of normal sequence of NREM and REM sleep (healthy human volunteers, low doses (about 30 mg/kg))	tolerance to sleep-inducing effects (low doses, over time)	organ or other toxicities in periodic clinical laboratory tests ([1]; long-term treatment of narcolepsy)	development of tolerance ([1]; patients treated for many years)	continuity of sleep ([2]; clinical trials)	delta sleep ([2]; clinical trials)	REM latency ([2]; human, in vivo)	sleep apnea ([2]; human, in vivo)	total sleep time and REM sleep ([2]; human, in vivo)	symptoms of opiate withdrawal [3]	growth hormone levels [4]	alcohol craving, daily drinks, alcohol withdrawal symptoms [5]	intracranial pressure [6]	signs and symptoms of narcolepsy (daytime sleepiness, cataplexy, sleep paralysis, hypnagogic hallucinations) [7]	oral absorption and elimination processes [8]
O=C(O)CCCO [GHB monosodium salt, sodium oxybate]	2 to 3 h	without the development of tolerance													
O=C(O)CCCO [GHB, Gamma-hydroxybutyric acid]			have not indicated organ or other toxicities	without development of tolerance	improves the continuity of sleep	increases delta sleep	decreases REM latency	reduces sleep apnea	increases total sleep time and REM sleep	decrease the symptoms of opiate withdrawal	increase growth hormone levels	reduce alcohol craving, the number of daily drinks consumed, and the symptoms of alcohol withdrawal	reduce intracranial pressure	substantially reduces the signs and symptoms of narcolepsy	capacity-limited
